Some test systems named below: 786-0; COLO 205; EKVX; HCT-116; HT-29; K562; KM12; OVCAR-3; OVCAR-5; OVCAR-8; SF-268; SF-295; SK-OV-3; SNB-75; SW-620; T47D; UO-31; IGROV-1; HOP-92; SR.
Holding throughout (test): inhibition of tumour cell growth, NCI panel, 48 h

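Tested at 5 concentrations; 48 h exposure; 96-well plates; endpoints linearly interpolated, else capped at highest concentration. GI50 marks 50% less growth.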 Active and inactive are the calls of the source. No stated cut-off is given here; in the data, active = GI50 up to about 1.1 µM and inactive = higher. Bounds are passed on as bounds.

Consider `Cc1cccc(N/C(Sc2ccccc2)=C(/C(Cl)=C(Cl)Cl)[N+](=O)[O-])c1`, for which the GI50 is 16.9 µM (inactive) in the assay with 786-0; 15.6 µM (inactive) in the assay on COLO 205; 16.9 µM (inactive) in the assay with EKVX; 15.3 µM (inactive) with HCT-116; 17.6 µM (inactive) in the assay on HT-29; 20.3 µM (inactive) with K562. For the same molecule, the GI50 was 23.1 µM (inactive) in the assay with KM12; 10 µM (inactive) in the assay with OVCAR-3; 15.1 µM (inactive) in the assay with OVCAR-5; 16.1 µM (inactive) with OVCAR-8; 17.8 µM (inactive) with SF-268; 17.1 µM (inactive) in the assay with SF-295. The GI50 with SK-OV-3 is 20.5 µM (inactive); with SNB-75, 26.1 µM (inactive); in the assay with SW-620, 17.4 µM (inactive); with T47D, 18 µM (inactive); in the assay on UO-31, 14.7 µM (inactive).

Regarding `Cc1ccc2c(=O)c(C(=O)Nn3c(C)csc3=S)c[nH]c2n1`, the GI50 in the assay on 786-0, in the assay with COLO 205, with EKVX, in the assay with HCT-116, in the assay on HT-29 and in the assay on IGROV-1 was > 100 µM (inactive) in each case. Besides, the GI50 in the assay on K562, in the assay on KM12, in the assay with OVCAR-3, in the assay with OVCAR-5, in the assay on OVCAR-8 and with SF-268 was > 100 µM (inactive) throughout. Also, the GI50 with SF-295, with SW-620, in the assay on T47D and in the assay on UO-31 was > 100 µM (inactive) throughout.

As for `NC(=S)N/N=C/C(O[C@@H](/C=N/NC(N)=S)CO)n1cnc2c(N)ncnc21` (some centres not stated), the GI50 with 786-0 was > 58.2 µM (inactive); in the assay on COLO 205, > 49.8 µM (inactive); in the assay with EKVX, > 100 µM (inactive); in the assay on HCT-116 it was 24.4 µM (inactive); in the assay with HOP-92, 97.5 µM (inactive); in the assay with HT-29 it was > 62.5 µM (inactive). Besides, the GI50 with IGROV-1 was > 56.2 µM (inactive); in the assay with K562, > 54.7 µM (inactive); in the assay with KM12 it was > 100 µM (inactive); in the assay with OVCAR-3, > 55.3 µM (inactive); in the assay on OVCAR-5 it was > 100 µM (inactive); with OVCAR-8 it was > 91.2 µM (inactive). Besides, the GI50 in the assay with SF-268 was > 85.5 µM (inactive); in the assay on SF-295, > 100 µM (inactive); with SK-OV-3, > 100 µM (inactive); with SNB-75 it was > 52.4 µM (inactive); in the assay on SR, > 100 µM (inactive); with SW-620 it was > 38 µM (inactive). Also, the GI50 in the assay with UO-31 was > 100 µM (inactive).

As for `C=C(Br)N(CC)CC`, the GI50 in the assay on 786-0, with COLO 205, with EKVX, in the assay on HCT-116, in the assay with HOP-92 and in the assay on HT-29 was > 100 µM (inactive) each time. For the same molecule, the GI50 in the assay on IGROV-1, in the assay with K562, with KM12, in the assay with OVCAR-3, in the assay on OVCAR-5 and with OVCAR-8 was > 100 µM (inactive) each time. Also, the GI50 with SF-268, in the assay on SF-295, with SK-OV-3, in the assay on SNB-75, in the assay with SR and in the assay with SW-620 was > 100 µM (inactive) in each case. Further, the GI50 in the assay with UO-31 was > 100 µM (inactive).

Regarding `CCCC(=O)Oc1ccc2c(C)cc(=O)oc2c1OC(=O)CCC`, the GI50 in the assay on 786-0 is 73.3 µM (inactive); in the assay with COLO 205 it was 86.1 µM (inactive); with EKVX it was 70.5 µM (inactive); in the assay on HCT-116, 39.6 µM (inactive); with HOP-92 it was 41.3 µM (inactive); with HT-29, 35.5 µM (inactive). Further, the GI50 with IGROV-1 is 45.7 µM (inactive); in the assay on K562, 60 µM (inactive); in the assay with KM12, 75.3 µM (inactive); with OVCAR-3 it was 32.4 µM (inactive); in the assay with OVCAR-5 it was > 100 µM (inactive); with OVCAR-8, 34.8 µM (inactive). For the same molecule, the GI50 was 46.2 µM (inactive) with SF-268; 82.6 µM (inactive) in the assay with SF-295; > 100 µM (inactive) in the assay with SK-OV-3; 40.6 µM (inactive) in the assay on SNB-75; 48.4 µM (inactive) in the assay with SR; 40.1 µM (inactive) with SW-620. Further, the GI50 with UO-31 is 60.1 µM (inactive).

In the case of `CN1CCN=C1c1nnn(-c2ccc([N+](=O)[O-])cc2)c1-c1ccccc1`, the GI50 was > 100 µM (inactive) in the assay with 786-0; > 100 µM (inactive) in the assay with COLO 205; > 100 µM (inactive) in the assay with EKVX; > 100 µM (inactive) in the assay with HCT-116; 13.6 µM (inactive) in the assay on HOP-92; 64.9 µM (inactive) with HT-29. Also, the GI50 in the assay with IGROV-1 is > 100 µM (inactive); with K562, 33.7 µM (inactive); in the assay with KM12, > 100 µM (inactive); in the assay on OVCAR-3 it was > 100 µM (inactive); in the assay on OVCAR-5 it was > 100 µM (inactive); with OVCAR-8, > 100 µM (inactive). Moreover, the GI50 in the assay with SF-268 is > 100 µM (inactive); with SF-295, > 100 µM (inactive); in the assay with SK-OV-3, > 100 µM (inactive); in the assay on SNB-75, > 100 µM (inactive); in the assay on SR, > 100 µM (inactive); in the assay with SW-620, 26.5 µM (inactive). In the assay with UO-31, the GI50 was 75.5 µM (inactive).

Take `Cc1[nH]c2c(c1Cc1ccccc1)C1=NC=C(O)NN1C=N2`: the GI50 was > 100 µM (inactive) in the assay on 786-0; 22 µM (inactive) in the assay on COLO 205; > 100 µM (inactive) with EKVX; 85.7 µM (inactive) in the assay on HCT-116; 80 µM (inactive) with HT-29; 10 µM (inactive) in the assay on IGROV-1. Besides, the GI50 in the assay on KM12 was > 100 µM (inactive); with OVCAR-3 it was 60.4 µM (inactive); in the assay on OVCAR-5, > 100 µM (inactive); in the assay on OVCAR-8, 51.4 µM (inactive); in the assay with SF-268, 94.2 µM (inactive); in the assay on SF-295 it was 62.4 µM (inactive). Besides, the GI50 with SK-OV-3 is > 100 µM (inactive); in the assay with SNB-75 it was 10.3 µM (inactive); in the assay with SW-620, 21.5 µM (inactive); with T47D, 14.4 µM (inactive); with UO-31, > 100 µM (inactive).

In the case of `O=C(O)C(Br)C(Br)C(=O)O` (configuration not stated), the GI50 in the assay with 786-0, in the assay on COLO 205, with EKVX, with HCT-116, in the assay on HOP-92 and in the assay with HT-29 was > 100 µM (inactive) throughout. The GI50 in the assay on IGROV-1, in the assay on K562, with KM12, in the assay with OVCAR-3, in the assay with OVCAR-5 and with OVCAR-8 was > 100 µM (inactive) throughout. For the same molecule, the GI50 in the assay with SF-268 was > 100 µM (inactive); with SF-295 it was > 100 µM (inactive); in the assay on SK-OV-3, > 100 µM (inactive); in the assay with SNB-75, > 100 µM (inactive); in the assay on SR, 28.2 µM (inactive); with SW-620, > 100 µM (inactive). The GI50 in the assay on UO-31 is > 100 µM (inactive).

Consider `COc1cc2cnc3c4cc(OCc5ccccc5)ccc4ccc3c2cc1OC`, for which the GI50 with 786-0 is 12.1 µM (inactive); in the assay on COLO 205, 18.5 µM (inactive); with EKVX, 58.3 µM (inactive); in the assay with HCT-116 it was 45.8 µM (inactive); in the assay with HOP-92, 16.6 µM (inactive); in the assay on HT-29, 25.1 µM (inactive). In addition, the GI50 with IGROV-1 is 28.1 µM (inactive); in the assay with K562 it was 10.4 µM (inactive); in the assay with KM12, 29.8 µM (inactive); with OVCAR-3, 40.6 µM (inactive); with OVCAR-5 it was > 100 µM (inactive); in the assay on OVCAR-8, 18.2 µM (inactive). Besides, the GI50 in the assay on SF-268 was 19.4 µM (inactive); with SF-295 it was 15.6 µM (inactive); in the assay on SK-OV-3, 12.7 µM (inactive); with SNB-75, 3.94 µM (inactive); in the assay on SR, 4.5 µM (inactive); with SW-620, 54.3 µM (inactive). Also, the GI50 in the assay with UO-31 is 27.2 µM (inactive).

As to `NC(=O)c1cn(C2OC(CO)C(O)C2O)c(=O)[nH]c1=O` (configuration not stated), the GI50 in the assay with 786-0, with COLO 205, in the assay with EKVX, in the assay with HCT-116, in the assay on HOP-92 and with HT-29 was > 100 µM (inactive) throughout. Also, the GI50 with IGROV-1, in the assay with K562, with KM12, in the assay with OVCAR-3, in the assay on OVCAR-5 and with OVCAR-8 was > 100 µM (inactive) in each case. Also, the GI50 in the assay on SF-268, in the assay with SF-295, in the assay with SK-OV-3, in the assay on SNB-75, with SR and in the assay on SW-620 was > 100 µM (inactive) throughout. Moreover, the GI50 with UO-31 was > 100 µM (inactive).

Regarding `CC/C=C\C/C=C\C/C=C\CCCCCCCC(=O)OCC(O)CO` (configuration not stated), the GI50 was > 63.1 µM (inactive) in the assay on 786-0; 70.5 µM (inactive) in the assay on COLO 205; > 88.7 µM (inactive) in the assay with EKVX; > 55.6 µM (inactive) in the assay with HCT-116; > 68.1 µM (inactive) in the assay with HOP-92; > 68.5 µM (inactive) with HT-29. For the same molecule, the GI50 in the assay on IGROV-1 is > 92.3 µM (inactive); in the assay with K562, 2.46 µM (inactive); with KM12 it was > 56.9 µM (inactive); in the assay on OVCAR-3 it was 40.9 µM (inactive); in the assay with OVCAR-5, > 100 µM (inactive); in the assay on OVCAR-8, > 67.8 µM (inactive). Further, the GI50 in the assay with SF-268 was > 90.8 µM (inactive); with SF-295 it was > 83.2 µM (inactive); in the assay on SK-OV-3 it was > 100 µM (inactive); in the assay on SNB-75, > 100 µM (inactive); in the assay with SR, 1 µM (active); in the assay on SW-620, 58.2 µM (inactive). The GI50 in the assay on UO-31 was 16.4 µM (inactive).

The record behind these values is ChEMBL document CHEMBL1201862, “PubChem BioAssay data set” (2004).
